Source: the NIST ThermoML archive (doi:10.1021/je050065n)
± gives the expanded uncertainty stated by the source.

Experiments:
[1] = Crystal
[2] = Molar enthalpy of transition or fusion; conditions: Crystal
[3] = molar heat capacity at constant pressure; conditions: 101.33 kPa

CCCCCCCCCCCCC(=O)OCC [ethyl tridecanoate]
Triple point temperature [1]: 272.4 ± 0.3 K | Molar enthalpy of transition or fusion [2]: 40.7 ± 0.3 kJ/mol | molar heat capacity at constant pressure ([3]; 203.72 K, Crystal): 303.18 ± 4 J/K/mol | molar heat capacity at constant pressure ([3]; 204.3 K, Crystal): 304.48 ± 4 J/K/mol | molar heat capacity at constant pressure ([3]; 206.07 K, Crystal): 306.99 ± 4.1 J/K/mol | molar heat capacity at constant pressure ([3]; 209.03 K, Crystal): 310.71 ± 4.1 J/K/mol | molar heat capacity at constant pressure ([3]; 211.98 K, Crystal): 314.26 ± 4.1 J/K/mol | molar heat capacity at constant pressure ([3]; 214.92 K, Crystal): 318.07 ± 4.1 J/K/mol | molar heat capacity at constant pressure ([3]; 217.87 K, Crystal): 321.89 ± 4.2 J/K/mol | molar heat capacity at constant pressure ([3]; 220.82 K, Crystal): 325.88 ± 4.2 J/K/mol | molar heat capacity at constant pressure ([3]; 226.72 K, Crystal): 334 ± 4.3 J/K/mol | molar heat capacity at constant pressure ([3]; 229.65 K, Crystal): 338.41 ± 4.3 J/K/mol | molar heat capacity at constant pressure ([3]; 232.57 K, Crystal): 342.7 ± 4.3 J/K/mol | molar heat capacity at constant pressure ([3]; 235.47 K, Crystal): 347.41 ± 4.4 J/K/mol | molar heat capacity at constant pressure ([3]; 238.34 K, Crystal): 352.35 ± 4.4 J/K/mol | molar heat capacity at constant pressure ([3]; 241.19 K, Crystal): 357.3 ± 4.5 J/K/mol | molar heat capacity at constant pressure ([3]; 244.03 K, Crystal): 362.39 ± 4.5 J/K/mol | molar heat capacity at constant pressure ([3]; 246.84 K, Crystal): 368.11 ± 4.5 J/K/mol | molar heat capacity at constant pressure ([3]; 249.63 K, Crystal): 374.08 ± 4.6 J/K/mol | molar heat capacity at constant pressure ([3]; 252.4 K, Crystal): 380.86 ± 4.7 J/K/mol | molar heat capacity at constant pressure ([3]; 255.15 K, Crystal): 387.34 ± 4.7 J/K/mol | molar heat capacity at constant pressure ([3]; 257.88 K, Crystal): 398.08 ± 4.8 J/K/mol | molar heat capacity at constant pressure ([3]; 260.57 K, Crystal): 413.23 ± 4.9 J/K/mol | molar heat capacity at constant pressure ([3]; 277.28 K, Liquid): 486.51 ± 2.8 J/K/mol | molar heat capacity at constant pressure ([3]; 279.73 K, Liquid): 487.34 ± 2.8 J/K/mol | molar heat capacity at constant pressure ([3]; 282.18 K, Liquid): 488.17 ± 2.8 J/K/mol | molar heat capacity at constant pressure ([3]; 288.64 K, Liquid): 490.72 ± 2.8 J/K/mol | molar heat capacity at constant pressure ([3]; 291.29 K, Liquid): 492.03 ± 2.8 J/K/mol | molar heat capacity at constant pressure ([3]; 293.93 K, Liquid): 493 ± 2.8 J/K/mol | molar heat capacity at constant pressure ([3]; 296.56 K, Liquid): 494.67 ± 2.8 J/K/mol | molar heat capacity at constant pressure ([3]; 299.2 K, Liquid): 496 ± 2.8 J/K/mol | molar heat capacity at constant pressure ([3]; 301.82 K, Liquid): 497.42 ± 2.8 J/K/mol | molar heat capacity at constant pressure ([3]; 304.44 K, Liquid): 498.94 ± 2.8 J/K/mol | molar heat capacity at constant pressure ([3]; 307.06 K, Liquid): 500.72 ± 2.8 J/K/mol | molar heat capacity at constant pressure ([3]; 309.67 K, Liquid): 502.48 ± 2.8 J/K/mol | molar heat capacity at constant pressure ([3]; 312.27 K, Liquid): 503.98 ± 2.8 J/K/mol | molar heat capacity at constant pressure ([3]; 314.87 K, Liquid): 505.99 ± 2.8 J/K/mol | molar heat capacity at constant pressure ([3]; 317.47 K, Liquid): 507.58 ± 2.8 J/K/mol | molar heat capacity at constant pressure ([3]; 320.06 K, Liquid): 509.22 ± 2.8 J/K/mol
